Source: ChEMBL document CHEMBL5321283, “Structure-Activity Relationships of the Antimicrobial Peptide Natural Product Apidaecin” (J Med Chem, 2023)
In brackets after ≈: the same amount, converted by molar mass. *1 amine or outer side, *2 acyl side, *3 side chain or, on linkers, in order; H or OH if unused. Where a SMILES comes first, the peptide text is derived from it. [ ]: non-standard residue; d: D form. The star is where a group is joined. Orn(α-tetramethylguanidino) = CN(C)C(=N[C@@H](CCCN)C(=O)*)N(C)C; X1 = N=C(N)NCCC[C@H](NC(=S)[C@@H]1CCCN1[*:1])C(=O)[*:2]; Hyp = O=C(O)[C@@H]1C[C@@H](O)CN1; hArg = N=C(N)NCCCC[C@H](N)C(=O)O; Cit = NC(=O)NCCC[C@H](N)C(=O)O; dLeu(ol) = CC(C)C[C@@H](N)CO; Leu(ol) = CC(C)C[C@H](N)CO; NHIsopentyl = CC(C)CCN*

What was measured:
[1] = tested on: Escherichia coli; assay: Antibacterial activity against Escherichia coli BL21 assessed as bacterial growth inhibition by broth microdilution assay; type: functional
[2] = tested on: Escherichia coli; assay: Potency index, ratio of Api-137 MIC to test compound MIC for antibacterial activity against Escherichia coli BL21 assessed as bacterial growth inhibition by broth microdilution assay; type: functional

Question: Which MIC [1] does the source give for CC[C@H](C)[C@H](NC(=O)[C@H](Cc1ccc(O)cc1)NC(=O)[C@@H](NC(=O)[C@@H]1CCCN1C(=O)[C@H](CCCNC(=N)N)NC(=O)[C@H](CC(N)=O)NC(=O)[C@H](CC(N)=O)NC(=O)[C@H](CCCN)N=C(N(C)C)N(C)C)C(C)C)C(=O)N1CCC[C@H]1C(=O)N[C@@H](CCCNC(=N)N)C(=O)N1CCC[C@H]1C(=O)N[C@@H](CCCNC(=N)N)C(=O)N1CCC[C@H]1C(=O)N1CCC[C@H]1C(=O)N[C@@H](Cc1c[nH]cn1)C(=O)N1CCC[C@H]1C(=O)N[C@@H](CCCNC(=N)N)C(=O)N[C@@H](CO)Cc1ccccc1 here?
Answer: The MIC was 40 µM (≈ 92.5 µg/mL).

Question: What about the Ratio [2] of the same compound?
Answer: Its Ratio is 800.

Question: Which results are given for CC[C@H](C)[C@H](NC(=O)[C@H](Cc1ccc(O)cc1)NC(=O)[C@@H](NC(=O)[C@@H]1CCCN1C(=O)[C@H](CCCNC(=N)N)NC(=O)[C@H](CC(N)=O)NC(=O)[C@H](CC(N)=O)NC(=O)[C@H](CCCN)N=C(N(C)C)N(C)C)C(C)C)C(=O)N1CCC[C@H]1C(=O)N[C@@H](CCCNC(=N)N)C(=O)N1CCC[C@H]1C(=O)N[C@@H](CCCNC(=N)N)C(=O)N1CCC[C@H]1C(=O)N1CCC[C@H]1C(=O)N[C@@H](Cc1c[nH]cn1)C(=O)N1CCC[C@H]1C(=O)N[C@@H](CCCNC(=N)N)C(=O)N[C@H](CO)Cc1ccccc1?
Answer: MIC [1]: 5 µM (≈ 11.6 µg/mL); Ratio [2]: 32

Question: How did the MIC [1] turn out when CC[C@H](C)[C@H](NC(=O)[C@H](Cc1ccc(OC)cc1)NC(=O)[C@@H](NC(=O)[C@@H]1CCCN1C(=O)[C@H](CCCNC(=N)N)NC(=O)[C@H](CC(N)=O)NC(=O)[C@H](CC(N)=O)NC(=O)[C@H](CCCN)N=C(N(C)C)N(C)C)C(C)C)C(=O)N1CCC[C@H]1C(=O)N[C@@H](CCCNC(=N)N)C(=O)N1CCC[C@H]1C(=O)N[C@@H](CCCNC(=N)N)C(=O)N1CCC[C@H]1C(=O)N1CCC[C@H]1C(=O)N[C@@H](Cc1c[nH]cn1)C(=O)N1CCC[C@H]1C(=O)N[C@@H](CCCNC(=N)N)C(=O)N[C@@H](CC(C)C)C(=O)O ({Orn(α-tetramethylguanidino)}-NNRPVY(Me)IPRPRPPHPRL-OH) was run?
Answer: The MIC was 1.5 µM (≈ 3.46 µg/mL).

Question: And the Ratio [2]?
Answer: The Ratio was 4.

Question: Which results are given for CC[C@H](C)[C@H](NC(=O)[C@H](Cc1ccc(O)cc1)NC(=O)[C@@H](NC(=O)[C@@H]1CCCN1C(=O)[C@H](CCCNC(=N)N)NC(=O)[C@H](CC(N)=O)NC(=O)[C@H](CC(N)=O)NC(=O)[C@H](CCCN)N=C(N(C)C)N(C)C)C(C)C)C(=O)N1CCC[C@H]1C(=O)N[C@@H](CCCNC(=N)N)C(=O)N1CCC[C@H]1C(=O)N[C@@H](CCCNC(=N)N)C(=O)N1CCC[C@H]1C(=O)N1CCC[C@H]1C(=O)N[C@@H](Cc1c[nH]cn1)C(=O)N1CCC[C@H]1C(=O)N[C@@H](CCCNC(=N)N)C(=O)NCCC(C)C ({Orn(α-tetramethylguanidino)}-NNRPVYIPRPRPPHPR-NHIsopentyl)?
Answer: MIC [1]: > 40 µM; Ratio [2]: >800

Question: How did the MIC [1] turn out when CC[C@H](C)[C@H](NC(=O)[C@H](Cc1ccc(O)cc1)NC(=O)[C@@H](NC(=O)[C@@H]1CCCN1C(=O)[C@H](CCCNC(=N)N)NC(=O)[C@H](CC(N)=O)NC(=O)[C@H](CC(N)=O)NC(=O)[C@H](CCCN)N=C(N(C)C)N(C)C)C(C)C)C(=O)N1CCC[C@H]1C(=O)N[C@@H](CCCNC(=N)N)C(=O)N1CCC[C@H]1C(=O)N[C@@H](CCCNC(=N)N)C(=O)N1CCC[C@H]1C(=O)N1CCC[C@H]1C(=O)N[C@@H](Cc1c[nH]cn1)C(=O)N1CCC[C@H]1C(=O)N[C@@H](CCCNC(=N)N)C(=O)N[C@H](CO)CC(C)C ({Orn(α-tetramethylguanidino)}-NNRPVYIPRPRPPHPR[Leu(ol)]) was run?
Answer: The MIC was 5 µM (≈ 11.4 µg/mL).

Question: What about the Ratio [2] of the same compound?
Answer: The Ratio was 32.

Question: CC[C@H](C)[C@H](NC(=O)[C@H](Cc1ccc(O)cc1)NC(=O)[C@@H](NC(=O)[C@@H]1CCCN1C(=O)[C@H](CCCNC(=N)N)NC(=O)[C@H](CC(N)=O)NC(=O)[C@H](CC(N)=O)NC(=O)[C@H](CCCN)N=C(N(C)C)N(C)C)C(C)C)C(=O)N1CCC[C@H]1C(=O)N[C@@H](CCCNC(=N)N)C(=O)N1CCC[C@H]1C(=O)N[C@@H](CCCNC(=N)N)C(=O)N1CCC[C@H]1C(=O)N1CCC[C@H]1C(=O)N[C@@H](Cc1c[nH]cn1)C(=O)N1CCC[C@H]1C(=O)N[C@@H](CCCNC(=N)N)C(=O)N[C@@H](CO)CC(C)C ({Orn(α-tetramethylguanidino)}-NNRPVYIPRPRPPHPR[dLeu(ol)]) was tested. Which MIC [1] did it give?
Answer: Its MIC is 10 µM (≈ 22.8 µg/mL).

Question: And the Ratio [2]?
Answer: Its Ratio is 62.

Question: CC[C@H](C)[C@H](NC(=O)[C@H](Cc1ccc(O)cc1)NC(=O)[C@@H](NC(=O)[C@@H]1CCCN1C(=O)[C@H](CCCNC(=N)N)NC(=O)[C@H](CC(N)=O)NC(=O)[C@H](CC(N)=O)NC(=O)[C@H](CCCN)N=C(N(C)C)N(C)C)C(C)C)C(=O)N1CCC[C@H]1C(=O)N[C@@H](CCCNC(=N)N)C(=O)N1CCC[C@H]1C(=O)N[C@@H](CCCNC(=N)N)C(=O)N1CCC[C@H]1C(=O)N1CCC[C@H]1C(=O)N[C@@H](Cc1c[nH]cn1)C(=O)N1CCC[C@H]1C(=O)N[C@@H](CCCNC(N)=O)C(=O)N[C@@H](CC(C)C)C(=O)O ({Orn(α-tetramethylguanidino)}-NNRPVYIPRPRPPHP[Cit]L-OH) was tested. Which MIC [1] did it give?
Answer: Its MIC is 20 µM (≈ 45.9 µg/mL).

Question: What about the Ratio [2] of the same compound?
Answer: Its Ratio is 128.

Question: With CC[C@H](C)[C@H](NC(=O)[C@H](Cc1ccc(O)cc1)NC(=O)[C@@H](NC(=O)[C@@H]1CCCN1C(=O)[C@H](CCCNC(=N)N)NC(=O)[C@H](CC(N)=O)NC(=O)[C@H](CC(N)=O)NC(=O)[C@H](CCCN)N=C(N(C)C)N(C)C)C(C)C)C(=O)N1CCC[C@H]1C(=O)N[C@@H](CCCNC(=N)N)C(=O)N1CCC[C@H]1C(=O)N[C@@H](CCCNC(=N)N)C(=O)N1CCC[C@H]1C(=O)N1CCC[C@H]1C(=O)N[C@@H](Cc1c[nH]cn1)C(=O)N1CCC[C@H]1C(=O)N[C@@H](CCCCNC(=N)N)C(=O)N[C@@H](CC(C)C)C(=O)O ({Orn(α-tetramethylguanidino)}-NNRPVYIPRPRPPHP[hArg]L-OH) as the compound, how does the MIC [1] read?
Answer: Its MIC is 2.5 µM (≈ 5.76 µg/mL).

Question: And the Ratio [2]?
Answer: The Ratio was 16.

Question: What does the source list for CC[C@H](C)[C@H](NC(=O)[C@H](Cc1ccc(O)cc1)NC(=O)[C@@H](NC(=O)[C@@H]1CCCN1C(=O)[C@H](CCCNC(=N)N)NC(=O)[C@H](CC(N)=O)NC(=O)[C@H](CC(N)=O)NC(=O)[C@H](CCCN)N=C(N(C)C)N(C)C)C(C)C)C(=O)N1CCC[C@H]1C(=O)N[C@@H](CCCNC(=N)N)C(=O)N1CCC[C@H]1C(=O)N[C@@H](CCCNC(=N)N)C(=O)N1CCC[C@H]1C(=O)N1CCC[C@H]1C(=O)N[C@@H](Cc1c[nH]cn1)C(=O)N1C[C@H](O)C[C@H]1C(=O)N[C@@H](CCCNC(=N)N)C(=O)N[C@@H](CC(C)C)C(=O)O ({Orn(α-tetramethylguanidino)}-NNRPVYIPRPRPPH[Hyp]RL-OH)?
Answer: MIC [1]: 0.3 µM (≈ 0.692 µg/mL); Ratio [2]: 2

Question: Which MIC [1] does the source give for CC[C@H](C)[C@H](NC(=O)[C@H](Cc1ccc(O)cc1)NC(=O)[C@@H](NC(=O)[C@@H]1CCCN1C(=O)[C@H](CCCNC(=N)N)NC(=O)[C@H](CC(N)=O)NC(=O)[C@H](CC(N)=O)NC(=O)[C@H](CCCN)N=C(N(C)C)N(C)C)C(C)C)C(=O)N1CCC[C@H]1C(=O)N[C@@H](CCCNC(=N)N)C(=O)N1CCC[C@H]1C(=O)N[C@@H](CCCNC(=N)N)C(=O)N1CCC[C@H]1C(=O)N1CCC[C@H]1C(=O)N[C@@H](Cc1c[nH]cn1)C(=O)N1CCC[C@H]1C(=S)N[C@@H](CCCNC(=N)N)C(=O)N[C@@H](CC(C)C)C(=O)O ({Orn(α-tetramethylguanidino)}-NNRPVYIPRPRPPH[X1]L-OH) here?
Answer: Its MIC is 0.62 µM (≈ 1.43 µg/mL).

Question: And the Ratio [2]?
Answer: The Ratio was 4.
